Assay results published in patent US5561113A, “New pseudopeptide compounds of neurokinins” (priority 1994, dated 1996).
Where a name gives a salt, the structure may show the parent alone.

Key:
human receptors NK1 = biological target: T1, human receptors NK1 (Homo sapiens, UniProt P25103); assay: Affinity for the human NK1 receptor on IM-9 lymphoblasts; format: binding; conditions: human lymphoblasts IM-9 expressing NK1
T1 construct: human lymphoblasts IM-9 specifically expressing the NK1 receptor; endogenous in cells; host or cells: IM-9 human lymphoblasts
Text: (§1) The affinity for the human receptors NK1 and NK2 was studied on the human lymphoblasts IM-9 specifically expressing the NK1 receptor as described by D. G. PAYAN et al. (J. Biol. Chem. 1986, 261, 14321-14329)and on CHO-K1 cells transfected with the NK2 receptor based on the "CellPhect transfection" kit (Pharmacia).

human receptors NK2 = biological target: T2, human receptors NK2 (Homo sapiens, UniProt P21452); assay: Affinity for the human NK2 receptor on transfected CHO-K1 cells; format: binding; conditions: CHO-K1 cells transfected with NK2 receptor
T2 construct: expressed in transfected cells; host or cells: CHO-K1
T2 sequence (P21452 1-398): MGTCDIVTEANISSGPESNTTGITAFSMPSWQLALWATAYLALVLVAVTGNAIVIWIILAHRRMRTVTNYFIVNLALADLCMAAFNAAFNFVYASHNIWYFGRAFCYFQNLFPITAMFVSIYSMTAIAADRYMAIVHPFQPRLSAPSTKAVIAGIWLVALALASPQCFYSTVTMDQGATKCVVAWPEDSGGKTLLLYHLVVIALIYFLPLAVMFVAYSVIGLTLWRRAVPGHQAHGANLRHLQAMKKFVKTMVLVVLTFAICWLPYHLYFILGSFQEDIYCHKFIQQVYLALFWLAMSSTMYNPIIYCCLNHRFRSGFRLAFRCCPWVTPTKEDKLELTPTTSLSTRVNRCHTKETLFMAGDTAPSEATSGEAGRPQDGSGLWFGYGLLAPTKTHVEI
Text: as §1

NK3 receptors = biological target: T3, NK3 receptors (Rattus norvegicus, UniProt P16177); assay: Isolated smooth muscle: rat portal vein (RatPV), NK3-mediated contraction; format: biochemical
T3 construct: three preparations isolated from smooth muscle were used; from tissue; host or cells: rat portal vein
T3 sequence (P16177 1-452): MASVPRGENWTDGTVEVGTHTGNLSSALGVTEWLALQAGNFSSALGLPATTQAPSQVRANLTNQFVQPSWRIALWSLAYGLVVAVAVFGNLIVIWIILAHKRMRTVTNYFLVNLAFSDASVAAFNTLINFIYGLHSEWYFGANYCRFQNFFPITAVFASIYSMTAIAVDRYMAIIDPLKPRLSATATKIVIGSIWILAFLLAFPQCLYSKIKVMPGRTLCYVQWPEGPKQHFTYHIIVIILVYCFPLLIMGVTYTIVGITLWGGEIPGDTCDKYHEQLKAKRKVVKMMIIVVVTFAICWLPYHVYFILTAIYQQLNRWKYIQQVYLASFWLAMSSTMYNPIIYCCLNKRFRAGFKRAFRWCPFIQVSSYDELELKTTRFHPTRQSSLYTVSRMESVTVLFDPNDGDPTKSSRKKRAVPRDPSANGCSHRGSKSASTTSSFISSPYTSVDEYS
Text: (§2) In order to evaluate the functional activity of the compounds of the invention as antagonists of neurokinins, three preparations isolated from smooth muscle were used: rabbit vena cava (RVC), endothelium-free rabbit pulmonary artery (RPA) and rat portal vein (RatPV) whose contractile responses are respectively mediated by the NK1, NK2 and NK3 receptors as indicated by D. JUKIC et al. (Life Sci. 1991, 49, 1463-1469).
(§3) The antagonistic power of the compounds of the invention was expressed in the form of pA2 as defined by O. […] and H. O. SCHILD (Brit. J. Pharmacol. 1959, 14, 48-58).

NK2 receptors = biological target: T4, NK2 receptors (Oryctolagus cuniculus, UniProt P79218); assay: Isolated smooth muscle: endothelium-free rabbit pulmonary artery (RPA), NK2-mediated contraction; format: biochemical
T4 construct: three preparations isolated from smooth muscle were used; from tissue; host or cells: endothelium-free rabbit pulmonary artery
T4 sequence (P79218 1-384): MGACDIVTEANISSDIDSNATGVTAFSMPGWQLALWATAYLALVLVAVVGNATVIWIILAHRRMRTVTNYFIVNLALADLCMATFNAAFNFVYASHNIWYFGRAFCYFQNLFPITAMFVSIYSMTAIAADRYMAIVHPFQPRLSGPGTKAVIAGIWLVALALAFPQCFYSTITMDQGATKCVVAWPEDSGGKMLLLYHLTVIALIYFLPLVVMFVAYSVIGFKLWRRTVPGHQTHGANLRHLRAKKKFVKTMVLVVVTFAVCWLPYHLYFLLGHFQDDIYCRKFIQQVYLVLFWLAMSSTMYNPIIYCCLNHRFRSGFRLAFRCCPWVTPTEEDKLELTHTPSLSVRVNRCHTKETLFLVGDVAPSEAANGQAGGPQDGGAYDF
Text: as §2, §3

NK1 receptors = biological target: T5, NK1 receptors (Oryctolagus cuniculus, UniProt G1SEI7); assay: Isolated smooth muscle: rabbit vena cava (RVC), NK1-mediated contraction; format: biochemical
T5 construct: three preparations isolated from smooth muscle were used; from tissue; host or cells: rabbit vena cava
Text: as §2, §3

mice (CD1 male) = assay: animal or person; format: in vivo; conditions: iv
male Hartley guinea pigs = assay: Inhibition of bronchoconstriction induced by substance P in guinea pigs; format: in vivo; conditions: dose of 1 μmol/kg i.v.
Protocol: The study is carried out on male Hartley guinea pigs (Charles River) of a mean weight of 300 to 400 g. […] The animals were pretreated with pyrilamine (1 mg/kg iv), propanolol (1 mg/kg iv). The criterion for assessing the bronchoconstriction is the increase in the tracheal insufflation pressure (TIP) induced by the injection of substance P via the iv route at the dose of 2 nM/kg iv, each animal being its own control. The injection of the test product being carried out relative to the time TO injection of the product. The results are expressed as percentage inhibition of the substance P-induced bronchoconstriction, this percentage being calculated according to the following formula: (ΔTIP before product-ΔTIP after product)/ΔTIP before product (expressed as percentage).

guinea pigs = assay: Inhibition of plasma extravasation induced by substance P in guinea pig bladder; format: in vivo; conditions: 0.1 mg/kg intravenously 5 minutes before substance P (1 μg/kg iv)
Protocol: The effect of the compounds on plasma extravasation caused by intravenous injection of substance P (1 μg/kg) in guinea pigs was evaluated on the bladder, according to the method described for rats by C. GARRET et al. (Proc. Natl. Acad. Sci., USA 1991, 88, 10208-20212). Vesical accumulation of Evans blue injected IV at the same time as substance P and 10 minutes before sacrificing, was quantified by spectrophotometry after extraction of the colorant with acetone. The inhibitory activity of the compounds administered intravenously 5 minutes before substance P was expressed as % inhibition compared with a control batch (8 animals per batch).

[1] = test system: peritoneal mast cells of male rats; assay: Mast cell degranulation in vitro (histamine release); format: cell-based; conditions: rat peritoneal mast cells, 20 min incubation, up to the concentration of 10^-4 M
Protocol: The studies are carried out on peritoneal mast cells of male rats: Sprague-Dawley of mean weight 350 to 400 g and are killed by euthanasia by inhalation of CO2. A peritoneal lavage is carried out with 20 ml of buffer (NaCl 150 mM, KCl 2.7 mM, CaCl2, 0.9 mM, Na2 HPO4, 3 mM, KH2 PO4, 3.5 mM, glucose 5.6 mM, bovine serum albumin 1 mg/ml, pH 6.8).
The lavage liquid is centrifuged at 400 g for 10 min at 4° C. and taken up in a buffer at a density of 2×10^4 mast cells/mi. The compounds are incubated at an increasing concentration for 20 min. The reaction is stopped by placing the tubes on ice and a centrifugation is carried out with 700 g for 10 min at 4° C. The supernatant and the pellet are tested by fluorimetry after condensation with o-phthaldehyde. The histamine released from the cells into the supernatant thus assayed is expressed as percentage of the total histamine content of the cells.

T1 sequence (P25103 whole entry): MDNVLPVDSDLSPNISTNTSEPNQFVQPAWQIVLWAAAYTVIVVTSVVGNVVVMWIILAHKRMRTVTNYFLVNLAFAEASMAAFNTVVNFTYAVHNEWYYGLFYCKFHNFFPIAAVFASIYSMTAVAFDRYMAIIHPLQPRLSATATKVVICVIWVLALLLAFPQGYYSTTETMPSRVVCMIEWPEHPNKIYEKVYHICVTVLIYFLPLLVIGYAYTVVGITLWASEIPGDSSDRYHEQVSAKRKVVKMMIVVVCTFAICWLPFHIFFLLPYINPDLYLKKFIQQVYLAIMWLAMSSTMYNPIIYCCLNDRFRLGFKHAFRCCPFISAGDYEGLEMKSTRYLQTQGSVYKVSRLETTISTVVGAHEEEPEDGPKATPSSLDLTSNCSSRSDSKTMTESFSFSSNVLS
T5 sequence (G1SEI7 1-407): as the sequence (P25103 whole entry) above, with S12F, N189D, P369A, D371E, T376N, C386G, D391N, S402Y, V405M counted along it

| Structure (SMILES) | Ki (human receptors NK1) | Ki (human receptors NK2) | NK3 (VPR) pA2 (NK3 receptors) | NK2 (APL) pA2 (NK2 receptors) | NK1 (VCL) pA2 (NK1 receptors) | ED50 (mice (CD1 male); Mus musculus, read-out: ED50 (dose which increases the reaction time by 50%)) | % Inhibition of substance P-induced bronchoconstriction (male Hartley guinea pigs) | % inhibition of substance P-induced plasma extravasation (bladder) (guinea pigs) | Mast cell degranulation (histamine release) [1] | ED50 (dose which increases the reaction time by 50%) (mice (CD1 male); mouse, in vivo) |
| --- | --- | --- | --- | --- | --- | --- | --- | --- | --- | --- |
| CN(Cc1ccccc1)C(=O)C(Cc1ccc2ccccc2c1)NC(=O)C1CC(O)CN1C(=O)c1cn(CCc2nn[nH]n2)c2ccccc12 (stereo not drawn) [Example 5, {1-[2-(1H-tetrazol-5-yl)ethyl]indol-3-yl}carbonyl-Hyp-Nal-NMeBzl, potassiu m salt] | 0.63 nM | > 10000 nM |  |  |  |  |  |  |  |  |
| CN(Cc1ccccc1)C(=O)C(Cc1ccc2c(c1)CCCC2)NC(=O)C1CC(O)CN1C(=O)c1cn(CCCCc2nn[n-]n2)c2ccccc12.[K+] (stereo not drawn) [Example 2, {1-[4-(1H-tetrazol-5-yl)butyl]indol-3-yl}carbonyl-Hyp-Tna-NMeBzl, potassiu m salt] | 14 nM | 3600 nM | 5.87 | 6.47 | 8.17 |  |  |  |  |  |
| CN(Cc1ccccc1)C(=O)C(CC1CCCCC1)NC(=O)C1CC(O)CN1C(=O)c1cn(CCCCc2nn[nH]n2)c2ccccc12 (stereo not drawn) [Example 11, {1-[4-(1H-tetrazol-5-yl)butyl]indol-3-yl}carbonyl-Hyp-Cha-NMeBzl, potassium salt] | 52 nM | > 1000 nM |  |  |  |  |  |  |  |  |
| CN(Cc1ccccc1)C(=O)C(CC1CCc2ccccc2C1)NC(=O)C1CC(O)CN1C(=O)c1cn(CCCCc2nn[n-]n2)c2ccccc12.[K+] (mixture of isomers) [Example 3, {1-[4-(1H-tetrazol-5-yl)butyl]indol-3-yl}carbonyl-Hyp-Thn-NMeBzl, potassiu m salt] | 14 nM | 1400 nM | 5.87 | 5.87 | 7.87 |  |  |  |  |  |
| CN1CC[C@]23c4c5ccc(O)c4O[C@H]2[C@@H](O)C=C[C@H]3[C@H]1C5 [morphine, reference compound] |  |  |  |  |  | 0.3 mg/kg |  |  |  |  |
| CN(Cc1ccccc1)C(=O)C(Cc1ccc2ccccc2c1)NC(=O)C1CC(O)CN1C(=O)c1cn(CCCCc2nn[n-]n2)c2ccccc12.[K+] (stereo not drawn) [Example 1, {1-[4-(1H-tetrazol-5-yl)butyl]indol-3-yl}carbonyl-Hyp-Nal-NMeBzl, potassiu m salt] |  | 2400 nM | 4.96 | 5.57 | 9.57 |  | 95% | 56% | does not cause mast cell degranulation | 0.018 mg/kg |
| CN(Cc1ccccc1)C(=O)C(Cc1ccc2ccccc2c1)NC(=O)C1CC(O)CN1C(=O)c1cn(Cc2nn[n-]n2)c2ccccc12.[K+] (stereo not drawn) [Example 4, {1-[(1H-tetrazol-5-yl)methyl]indol-3-yl}carbonyl-Hyp-Nal-NMeBzl,potassium salt] | 0.78 nM | > 1000 nM | 5.84 |  | 8.14 |  | 61% |  |  |  |
| CN(Cc1ccccc1)C(=O)C(Cc1cccs1)NC(=O)C1CC(O)CN1C(=O)c1cn(CCCCc2nn[nH]n2)c2ccccc12 (stereo not drawn) [Example 8, {1-[4-(1H-tetrazol-5-yl)butyl]indol-3-yl}carbonyl-Hyp-Thi-NMeBzl, potassiu m salt] | 110 nM | > 1000 nM |  |  |  |  |  |  |  |  |
| CN(Cc1ccccc1)C(=O)C(Cc1ccc(Cl)cc1)NC(=O)C1CC(O)CN1C(=O)c1cn(CCCCc2nn[nH]n2)c2ccccc12 (stereo not shown) [Example 9, {1-[4-(1H-tetrazol-5-yl)butyl]indol-3-yl}carbonyl-Hyp-(4-chloro)Phe-NMeBz potassium salt] | 22 nM | 3900 nM |  |  |  |  |  |  |  |  |
| CN(Cc1ccccc1)C(=O)C(Cc1ccc2ccccc2c1)NC(=O)C1CC(O)CN1C(=O)c1cn(CCCc2nn[n-]n2)c2ccccc12.[K+] (stereo not drawn) [Example 6, [1-[3-(1H-tetrazol-5-yl)propyl]indol-3-yl}carbonyl-Hyp-Nal-NMeBzl, potassium salt] | 1.2 nM | > 1000 nM |  | 5.20 | 8.46 |  | 60% |  |  |  |
| CN(Cc1ccccc1)C(=O)C(Cc1ccc2ccccc2c1)NC(=O)C1CC(O)CN1C(=O)c1cn(CCCCCc2nn[n-]n2)c2ccccc12.[K+] (stereo not drawn) [Example 7, {1-[5-(1H-tetrazol-5-yl)pentyl]indol-3-yl}carbonyl-Hyp-Nal-NMeBzl, potassium salt] | 5.9 nM | 10000 nM |  |  | 7.88 |  | 58% |  |  |  |
| COc1ccc(CC(NC(=O)C2CC(O)CN2C(=O)c2cn(CCCCc3nn[nH]n3)c3ccccc23)C(=O)N(C)Cc2ccccc2)cc1OC (stereo not shown) [Example 10, {1-[4-(1H-tetrazol-5-yl)butyl]indol-3-yl}carbonyl-Hyp-(3,4-dimethoxy)Phe-NMeBzl, potassium salt] | 180 nM | > 10000 nM |  |  |  |  |  |  |  |  |
